# Experimental data published in ChEMBL document CHEMBL1126446, “Acetylcholine releasing agents as cognition activators. Chemistry and pharmacology of a series of ureas” (1992).
# Experiments:
# Type in all cases: functional
# Rattus norvegicus [1] = organism: Rattus norvegicus; assay: Compound was tested for the selective increase in basal stimulated AcCh release in hippocampus at 100 uM
# Rattus norvegicus [2] = organism: Rattus norvegicus; assay: Compound was tested for the selective increase in K+ stimulated AcCh release in hippocampus at 100 uM
# Mus musculus = organism: Mus musculus; assay: Compound was tested for the minimum effective dose required for the inhibition of cholinesterase in mouse water maze; conditions: read-out: MED
# Rattus norvegicus [3] = organism: Rattus norvegicus; assay: Compound was tested for the selective increase in K+ stimulated AcCh release in cortex at 100 uM
# Rattus norvegicus [4] = organism: Rattus norvegicus; assay: Compound was tested for the selective increase in basal stimulated AcCh release in cortex at 100 uM
# Rattus norvegicus [5] = organism: Rattus norvegicus; assay: Compound was tested for the selective increase in basal stimulated AcCh release in striatum; design: concentration or dose not given beside the values
# Rattus norvegicus [6] = organism: Rattus norvegicus; assay: Compound was tested for the selective increase in K+ stimulated AcCh release in striatum; design: concentration or dose not given beside the values
# Rattus norvegicus [7] = organism: Rattus norvegicus; assay: Compound was tested for the selective increase in K+ stimulated AcCh release in cortex at 100 uM concentration
# Rattus norvegicus [8] = organism: Rattus norvegicus; assay: Compound was tested for the selective increase in K+ stimulated AcCh release in striatum 100 uM concentration
# Rattus norvegicus [9] = organism: Rattus norvegicus; assay: Compound was tested for the selective increase in basal stimulated AcCh release in striatum at 10 uM concentration
# Rattus norvegicus [10] = organism: Rattus norvegicus; assay: Compound was tested for the selective increase in basal stimulated AcCh release in striatum at 1 uM concentration
# Rattus norvegicus [11] = organism: Rattus norvegicus; assay: Compound was tested for the selective increase in K+ stimulated AcCh release in cortex at 10 uM concentration
# Rattus norvegicus [12] = organism: Rattus norvegicus; assay: Compound was tested for the selective increase in basal stimulated AcCh release in brain region of hippocampus at 100 uM concentration
# Rattus norvegicus [13] = organism: Rattus norvegicus; assay: Compound was tested for the selective increase in basal stimulated AcCh release in brain region of hippocampus at 10 uM concentration
# Rattus norvegicus [14] = organism: Rattus norvegicus; assay: Compound was tested for the selective increase in K+ stimulated AcCh release in cortex at 1 uM concentration
# Rattus norvegicus [15] = organism: Rattus norvegicus; assay: Compound was tested for the selective increase in basal stimulated AcCh release in brain region of hippocampus at 1 uM concentration
# Rattus norvegicus [16] = organism: Rattus norvegicus; assay: Compound was tested for the selective increase in basal stimulated AcCh release in cortex at 50 uM concentration
# Rattus norvegicus [17] = organism: Rattus norvegicus; assay: Compound was tested for the selective increase in basal stimulated AcCh release in striatum at 50 uM concentration
# Rattus norvegicus [18] = organism: Rattus norvegicus; assay: Compound was tested for the selective increase in K+ stimulated AcCh release in striatum 1 uM concentration
# Rattus norvegicus [19] = organism: Rattus norvegicus; assay: Compound was tested for the selective increase in K+ stimulated AcCh release in brain region of hippocampus at 10 uM concentration
# Rattus norvegicus [20] = organism: Rattus norvegicus; assay: Compound was tested for the selective increase in basal stimulated AcCh release in striatum at 100 uM concentration
# Rattus norvegicus [21] = organism: Rattus norvegicus; assay: Compound was tested for the selective increase in K+ stimulated AcCh release in striatum 10 uM concentration
# Rattus norvegicus [22] = organism: Rattus norvegicus; assay: Compound was tested for the selective increase in K+ stimulated AcCh release in cortex at 50 uM concentration
# Rattus norvegicus [23] = organism: Rattus norvegicus; assay: Compound was tested for the selective increase in basal stimulated AcCh release in cortex at 1 uM concentration
# Rattus norvegicus [24] = organism: Rattus norvegicus; assay: Compound was tested for the selective increase in basal stimulated AcCh release in cortex at 100 uM concentration
# Rattus norvegicus [25] = organism: Rattus norvegicus; assay: Compound was tested for the selective increase in K+ stimulated AcCh release in striatum 50 uM concentration
# Rattus norvegicus [26] = organism: Rattus norvegicus; assay: Compound was tested for the selective increase in K+ stimulated AcCh release in brain region of hippocampus at 100 uM concentration
# Rattus norvegicus [27] = organism: Rattus norvegicus; assay: Compound was tested for the selective increase in K+ stimulated AcCh release in brain region of hippocampus at 50 uM concentration
# Rattus norvegicus [28] = organism: Rattus norvegicus; assay: Compound was tested for the selective increase in basal stimulated AcCh release in cortex at 10 uM concentration
# Rattus norvegicus [29] = organism: Rattus norvegicus; assay: Compound was tested for the selective increase in K+ stimulated AcCh release in brain region of hippocampus at 1 uM concentration
# Rattus norvegicus [30] = organism: Rattus norvegicus; assay: Compound was tested for the selective increase in basal stimulated AcCh release in brain region of hippocampus at 50 uM concentration
smiles,measurement,setting,value
O=C(N(c1ccncc1)c1ccc(Cl)c(Cl)c1)N(C1CCCCC1)C1CCCCC1,AcCh release (% of control),Rattus norvegicus [1],335.2%
same,Control,Rattus norvegicus [2],233.2%
Cc1ccc(N(C(=O)N(c2ccccc2)c2ccccc2)c2ccncc2)cc1,AcCh release (% of control),Rattus norvegicus [1],186.4%
same,Control,Rattus norvegicus [2],229%
same,minimal effective dose,Mus musculus,> 32 mg/kg
O=C(N(c1ccccc1)c1ccccc1)N(c1ccccc1)c1ccccc1,Control,Rattus norvegicus [3],209.3%
same,AcCh release (% of control),Rattus norvegicus [1],137.8%
same,Control,Rattus norvegicus [4],144.1%
same,Control,Rattus norvegicus [2],420.6%
same,Control,Rattus norvegicus [5],402.4%
same,Control,Rattus norvegicus [6],303.7%
NC(=O)N(c1ccccc1)c1ccccc1,Control,Rattus norvegicus [3],111.4%
same,AcCh release (% of control),Rattus norvegicus [1],92.2%
same,Control,Rattus norvegicus [4],105.1%
same,Control,Rattus norvegicus [2],128.7%
same,Control,Rattus norvegicus [5],105.9%
same,Control,Rattus norvegicus [6],98.9%
O=C(Nc1ccccc1)N(c1ccccc1)c1ccccc1,Control,Rattus norvegicus [3],195.7%
same,AcCh release (% of control),Rattus norvegicus [1],78%
same,Control,Rattus norvegicus [4],100.3%
same,Control,Rattus norvegicus [2],151.3%
same,Control,Rattus norvegicus [5],259.5%
same,Control,Rattus norvegicus [6],224%
O=C(N(c1ccccc1)c1ccccc1)N(c1ccncc1)c1ccc(Cl)c(Cl)c1,AcCh release (% of control),Rattus norvegicus [1],124.9%
same,Control,Rattus norvegicus [2],46.6%
same,minimal effective dose,Mus musculus,32 mg/kg
O=C(N(c1ccccc1)c1ccncc1)N(c1ccc(F)cc1)c1ccc(F)cc1,AcCh release (% of control),Rattus norvegicus [1],115.6%
same,Control,Rattus norvegicus [2],48.9%
O=C(N(c1ccccc1)c1ccccc1)N(c1ccncc1)c1ccc(Cl)cc1,AcCh release (% of control),Rattus norvegicus [1],159.2%
same,Control,Rattus norvegicus [2],231.4%
O=C(N(c1ccccc1)c1ccccc1)N(c1ccccc1)c1ccncc1,Control,Rattus norvegicus [3],100%
same,AcCh release (% of control),Rattus norvegicus [1],95.4%
same,Control,Rattus norvegicus [4],95.2%
same,Control,Rattus norvegicus [2],129.8%
same,Control,Rattus norvegicus [5],279.8%
same,Control,Rattus norvegicus [6],206.5%
O=C(N(c1ccccc1)c1ccccc1)N(c1ccncc1)c1cccc(Cl)c1,AcCh release (% of control),Rattus norvegicus [1],103.4%
same,Control,Rattus norvegicus [2],9.8%
O=C(N(c1ccccc1)c1ccccc1)N(c1ccccc1)c1ccccn1,Control,Rattus norvegicus [3],158.8%
same,AcCh release (% of control),Rattus norvegicus [1],113.5%
same,Control,Rattus norvegicus [4],130%
same,Control,Rattus norvegicus [2],318.3%
same,Control,Rattus norvegicus [5],232.1%
same,Control,Rattus norvegicus [6],266.6%
Nc1ccncc1N [AMIFAMPRIDINE],Control,Rattus norvegicus [7],110.8%
same,Control,Rattus norvegicus [8],105.9%
same,Control,Rattus norvegicus [9],164.2%
same,Control,Rattus norvegicus [10],129.3%
same,Control,Rattus norvegicus [11],108.1%
same,Control,Rattus norvegicus [12],127.8%
same,Control,Rattus norvegicus [13],114%
same,Control,Rattus norvegicus [14],93.5%
same,Control,Rattus norvegicus [15],106.2%
same,Control,Rattus norvegicus [16],116%
same,Control,Rattus norvegicus [17],180.9%
same,Control,Rattus norvegicus [18],88.8%
same,Control,Rattus norvegicus [19],100.8%
same,Control,Rattus norvegicus [20],224.8%
same,Control,Rattus norvegicus [21],111.5%
same,Control,Rattus norvegicus [22],103%
same,Control,Rattus norvegicus [23],104.2%
same,Control,Rattus norvegicus [24],120.8%
same,Control,Rattus norvegicus [25],118.5%
same,Control,Rattus norvegicus [26],106.9%
same,Control,Rattus norvegicus [27],119.6%
same,Control,Rattus norvegicus [28],113.8%
same,Control,Rattus norvegicus [29],121.9%
same,Control,Rattus norvegicus [30],119%
Nc1ccncc1 [DALFAMPRIDINE],Control,Rattus norvegicus [7],96.3%
same,Control,Rattus norvegicus [8],131.6%
same,Control,Rattus norvegicus [9],131.5%
same,Control,Rattus norvegicus [10],107.6%
same,Control,Rattus norvegicus [11],104%
same,Control,Rattus norvegicus [12],128.1%
same,Control,Rattus norvegicus [13],116.8%
same,Control,Rattus norvegicus [14],96.7%
same,Control,Rattus norvegicus [15],112.7%
same,Control,Rattus norvegicus [16],112.2%
same,Control,Rattus norvegicus [18],94%
same,Control,Rattus norvegicus [19],96.5%
same,Control,Rattus norvegicus [20],170.9%
same,Control,Rattus norvegicus [21],105.5%
same,Control,Rattus norvegicus [22],99.9%
same,Control,Rattus norvegicus [23],96.2%
same,Control,Rattus norvegicus [24],118%
same,Control,Rattus norvegicus [26],105%
same,Control,Rattus norvegicus [28],102.4%
same,Control,Rattus norvegicus [29],97.3%
O=C(Nc1ccccc1)Nc1ccccc1 [DIPHENYLUREA],Control,Rattus norvegicus [3],125.8%
same,AcCh release (% of control),Rattus norvegicus [1],89%
same,Control,Rattus norvegicus [4],101.9%
same,Control,Rattus norvegicus [2],138.6%
same,Control,Rattus norvegicus [5],97.1%
same,Control,Rattus norvegicus [6],98.8%
NC(=O)Nc1ccccc1 [PHENYLUREA],Control,Rattus norvegicus [3],116.4%
same,AcCh release (% of control),Rattus norvegicus [1],94.1%
same,Control,Rattus norvegicus [4],105.8%
same,Control,Rattus norvegicus [2],107.9%
same,Control,Rattus norvegicus [5],99.3%
same,Control,Rattus norvegicus [6],99.8%
